From patent EP2924045A1, “New agents for the treatment of cancer” (Medizinische Universität Wien, priority 2014, dated 2015)

What was measured:
[1] = Stability test in minimal essential medium; type: physicochemical
cell viability = experiment: MTT-based cell viability under normoxic and hypoxic conditions; settings: 72 h treatment
Method: (§1) Cells were plated (2x10^3 cells/well) in 96-well plates and allowed to recover for 24 h. Subsequently, the dissolved drugs were added. After 72 h exposure, the proportion of viable cells was determined by MTT assay following the manufacturer's recommendations (EZ4U, Biomedica, Vienna, Austria). Cytotoxicity was expressed as IC50 values calculated from full dose-response curves using Graph Pad Prism software.
(§2) Cells were plated in 96- or 6-well plates, respectively, in an HERA cell 150i (Thermo Scientific) with at 1% O2/5% CO2 level for indicated time points (72 h and 4 h for MTT assays and protein isolation, respectively) before analysis/harvesting.
As a first step, the anticancer activity of the novel Co(III) complex was tested in comparison to the metal-free ligand under normoxic and hypoxic conditions as shown in Figures 5 and 6A after 72 h treatment cell viability was measured using a MTT-based system. Values given are means ± standard deviation (SD) of one representative experiment performed in triplicates (Statistical analysis: t-test; ***p< 0.001 ^a: difference between L2 and 1a; ^b: difference between 1a normoxia and 1a hypoxia).

EGFR = experiment: Western blot of EGFR inhibition in A431 and Calu3 cells under normoxia and hypoxia; type: cell-based; settings: 4 h treatment, EGF 50 ng/ml for 15 min
Method: as §2
Proteins were isolated, resolved by SDS/PAGE, and transferred onto a polyvinylidenedifluoride membrane for Western blotting by routine methods. The following antibodies were used: EGFR, pEGFR (Tyr1068), ERK1/2 (p44/42 MAPK), and pERK (Thr202/Tyr204) (all polyclonal rabbit - Cell Signaling Technology, Beverly, MA, USA). β-actin was monoclonal mouse AC-15 (Sigma). All primary antibodies were used in 1:1000 dilutions. Additionally, horseradish peroxidase-labelled secondary antibodies from Santa Cruz Biotechnology were used at working dilutions of 1:10000.

A431 xenografts = experiment: A431 xenograft tumour growth in SCID mice; type: in vivo; settings: 5 mg/kg i.v. or 25 mg/kg i.p.; efficacy comparable to erlotinib, especially upon intraperitoneal application
Source text: (§3) Six- to 8-week-old female CB-17 scid/scid (SCID) mice were purchased from Harlan Laboratories (San Pietro al Natisone, Italy). The animals were kept in a pathogen-free environment and every procedure was done in a laminar airflow cabinet. The experiments were done according to the regulations of the Ethics Committee for the Care and Use of Laboratory Animals at the Medical University Vienna, The U.S. Public Health Service Policy on Human Care and Use of Laboratory Animals as well as the United Kingdom Coordinating Committee on Cancer Prevention Research's Guidelines for the Welfare of Animals in Experimental Neoplasia.
(§4) This is of interest, as Calu3 xenografts are characterized by a rather specific tumor histology, where small tumour islands are surrounded by murine fibroblasts. Consequently, in these xenografts a larger tumor volume might be necessary for the development of hypoxic conditions and, thus, activation of 1b.

Calu3 xenografts = experiment: Calu3 xenograft tumour growth in SCID mice; type: in vivo; settings: when a tumour size of more than 200 mm^2 was reached
Source text: as §3, §4

A431 = experiment: MTT cytotoxicity assay, A431 cells; type: cell-based; settings: Homo sapiens, A-431; MTT assay after 72 h treatment; wild-type EGFR-overexpressing erlotinib-sensitive A431; read-out: Inhibition of Cell Growth (IC50 µM) A431
Method: Cell cultures were periodically checked for Mycoplasma contamination.
Subsequently, the dissolved drugs were added. […] Cytotoxicity was expressed as IC50 values calculated from full dose-response curves using Graph Pad Prism software.

H1975 = experiment: MTT cytotoxicity assay, H1975 cells; type: cell-based; settings: Homo sapiens, NCI-H1975; MTT assay after 72 h treatment; H1975 with resistance-conferring EGFR mutation T790M; read-out: Inhibition of Cell Growth (IC50 µM) H1975
Method: The human NSCLC cell lines A431 (wt EGFR-overexpressing and erlotinib-sensitive) and H1975 (EGFR mutation at L858R as well as T790M and erlotinib-resistant) were purchased from American Type Culture Collection (ATCC), Rockville, MD, USA and cultivated unless otherwise indicated in humidified incubators (37°C, 21% O2, 5% CO2) in RPMI 1640 medium containing 10% fetal calf serum (PAA, Linz Austria). Cell cultures were periodically checked for Mycoplasma contamination.
as §1
(§5) As a first step MTT assays (after 72 h treatment) performed in wild-type EGFR-overexpressing erlotinib-sensitive A431 and Calu3 cells as well as in H1975 cells, which harbour a resistance-conferring EGFR mutation T790M (Table 1). […] Only in Calu3 cells activity in the low µM range was observed. In contrast, L2 containing the smallest chelating moiety had IC50 values in the low µM range in both erlotinib-responsive models. […] Table 1. Anticancer activity (IC50 values)

Calu3 = experiment: MTT cytotoxicity assay, Calu3 cells; type: cell-based; settings: Homo sapiens, Calu-3; MTT assay after 72 h treatment; wild-type EGFR-overexpressing erlotinib-sensitive Calu3; read-out: Inhibition of Cell Growth (IC50 µM) Calu3
Method: as §1, §5

EGFR signaling pathway = experiment: Western blot of EGFR signaling (pERK, pEGFR) in EGF-stimulated cells; type: cell-based; settings: EGF-stimulated cells (HCC827 per Fig. 3), 4 h drug incubation, Western blotting

Structure (SMILES)	stable in minimal essential medium [1]	IC50 (A431)	IC50 (H1975)	IC50 (Calu3)	other results
CC(=O)C=C(C)[O-].CC(=O)C=C(C)[O-].F[P-](F)(F)(F)(F)F.NCCNc1ccc2ncnc(Nc3cccc(Br)c3)c2c1.[Co+3] [Compound 1a, Bis(2,4-pentanedionato) N^6-(2-aminoethyl)-N^4-(3-bromophenyl) quinazoline-4,6-diamine cobalt(III) hexafluorophosphate]	at least 24 h	–	–	–	anticancer activity, hypoxia (cell viability; hypoxia (1% O2)): significantly increased; anticancer activity (cell viability), normoxic conditions (cell viability; normoxic conditions, up to the highest tested concentration of 25 µM): widely inactive; EGFR inhibitory potential, hypoxia (EGFR; hypoxia): potent activity similar to the metal-free ligand L2; EGFR inhibitory potential, normoxic conditions (EGFR; normoxic conditions): distinctly reduced
CC(=O)C=C(C)[O-].CC(=O)C=C(C)[O-].NCCNc1ccc2ncnc(Nc3cccc(Br)c3)c2c1.[Cl-].[Co+3] [Compound 1b, Bis(2,4-pentanedionato) N^6-(2-aminoethyl)-N^4-(3-bromophenyl) quinazoline-4,6-diamine cobalt(III) chloride]	at least 24 h	–	–	–	tumor growth of A431 xenografts (A431 xenografts): potently inhibited tumor growth; tumor growth of Calu3 xenografts (Calu3 xenografts): induced distinct tumor regression
Brc1cccc(Nc2ncnc3ccc(N=Cc4ccccn4)cc23)c1 [Compound L1, N^4-(3-bromophenyl)-N^6-(pyridin-2-ylmethylene) quinazoline-4,6-diamine]	–	> 25 µM	20.4 ± 3.8 µM	3.5 ± 0.08 µM	–
Cl.Cl.NCCNc1ccc2ncnc(Nc3cccc(Br)c3)c2c1 [Compound L2, N^6-(2-aminoethyl)-N^4-(3-bromophenyl)quinazoline-4,6-diamine dihydrochloride]	–	9.15 ± 0.47 µM	15.5 ± 2.18 µM	2 ± 0.52 µM	inhibitory effects on ERK and EGFR phosphorylation levels (EGFR signaling pathway): most potent EGFR inhibitor with activity similar to erlotinib
C#Cc1cccc(Nc2ncnc3cc(OCCOC)c(OCCOC)cc23)c1 [erlotinib, reference compound]	–	–	> 25 µM	0.74 ± 0.02 µM	–
